Literature values in patent US20140296830A1 (priority 2013, published 2014).

Assays:
[1] = versus mepivacaine and lidocaine
[2] = pH 4

Compound	potency relative to mepivacaine and lidocaine [1]	solution stability [2]
CCCCN1CCCCC1C(=O)Nc1c(C)cccc1C (centres unmarked) [bupivacaine]	about 4 times	
CSCC[C@@H]1NC(=O)[C@H](CC(C)C)NC(=O)[C@H](CCCNC(=N)N)NC(=O)[C@H](CO)NC(=O)[C@@H]2CSSC[C@@H]3NC(=O)[C@H](CO)NC(=O)CNC(=O)[C@H]([C@@H](C)O)NC(=O)[C@H](CSSC[C@H](N)C(=O)N[C@@H](CCCCN)C(=O)NCC(=O)N[C@@H](CCCCN)C(=O)NCC(=O)N[C@@H](C)C(=O)N[C@@H](CCCCN)C(=O)N2)NC(=O)[C@H](CSSC[C@@H](C(N)=O)NC(=O)[C@H](CCCCN)NC(=O)CNC(=O)[C@H](CO)NC(=O)[C@H](CCCNC(=N)N)NC3=O)NC(=O)[C@H](CC(=O)O)NC(=O)[C@H](Cc2ccc(O)cc2)NC1=O [ziconotide]		stable at 45 °C for weeks
